According to US20230263817A1, “HIGH DOSE NICOTINAMIDE ADENINE DINUCLEOTIDE (NAD) PRECURSOR REGIMENS FOR REDUCTION OF INFLAMMATION IN HUMAN PATIENTS WITH PREEXISTING INFLAMMATION” (University of Washington, priority 2021, published 2023):

Assays:
healthy PBMCs = test: Seahorse Mito Stress Test (OCR) of healthy PBMCs after 4-hour in vitro treatment; type: cell-based, human; details: for PBMC maximal OCR: 4-hour increasing concentrations of recombinant human IL1B or IL18
Experimental: (§1) PBMC and Monocyte isolation. 30-60 ml of fasting blood was collected into EDTA-containing Vacutainers (BD Mfr #364606). Blood then was diluted (1:1) with RPMI medium (Corning; Cat #17-105-CV) and applied to Histopaque gradient medium (Sigma-Aldrich; Cat #10771) using SepMate-50 (STEMCELL Technologies), and centrifuged at 1200 g for 10 minutes. Top layer contained the enriched peripheral blood mononuclear cells (PBMCs) which were collected and followed by centrifugation at 300 g for 10 minutes. The pellet was resuspended with ACK lysis buffer (Gibco; Cat. A1049201) and incubated at room temperature for 5 minutes to remove residual red blood cells. Next, the enriched PBMCs were washed twice with RPMI medium. All PBMC samples were subjected to the baseline Seahorse Mito Stress Test. When available, the remaining cells were used for cytokine mRNA quantitative PCR and in vitro assays. For monocyte isolation, a magnetic bead-based negative-selection monocyte isolation kit (Miltenyi Biotec, 130-096-537) was used per the manufacturer's instructions. Briefly, antibody-conjugated magnetic bead solution was added to isolated PBMCs resuspended in RPMI containing 0.5% BSA and incubated for 20 minutes at 4° C., followed by magnetic column binding and elution. The procedure was repeated once to improve the purity of monocytes. The monocytes were washed once with RPMI prior to subsequent experiments.
Seahorse Mito Stress Test. Oxygen consumption rate (OCR) of freshly isolated PBMCs was assessed using a Seahorse XFe24 analyzer (Agilent Technologies). Briefly, purified PBMCs were resuspended in Seahorse base medium (Agilent Technologies, supplemented with 1 mM pyruvate, 2 mM glutamine, and 10 mM glucose, pH 7.4), and added 10^6 cells/well at equal volume of 500 μL in a Seahorse 24-well plate. The cells were maintained in a non-CO2 incubator and allowed to settle for 30 minutes at 37° C. Next, the plate was centrifuged at 40 g for 10 minutes at room temperature without application of the brake to help cells attach to the bottom of the plate. Drugs used in the assay: 5 μM oligomycin A (Sigma-Aldrich; Cat. 75351), 3 μM Trifluoromethoxy carbonylcyanide phenylhydrazone (FCCP) (Sigma-Aldrich; Cat. C2920), 1 μM Rotenone (Sigma-Aldrich; Cat. […]), 1 μM Antimycin A (Sigma-Aldrich; Cat. […]), 0.5 mM TMPD (Sigma-Aldrich; Cat. T7394) and 10 mM Ascorbate (Sigma-Aldrich; Cat. 95209).
(§2) PBMC and Monocyte Culture. Freshly isolated PBMCs or Monocytes from healthy or HF subjects were resuspended with RPMI medium plus 10% heat inactivated FBS. PBMCs (10^6 cells/well) were seeded in Seahorse 24-well plates and incubated at 37° C. in CO2 incubator with various proinflammatory triggers (Vehicle, MitoDAMP, LPS) and compounds (NR, MCC 950, MitoTempo, or LMT-28). After 4 hours incubation, the plate was centrifuged at 40 g for 10 minutes at room temperature without application of the brake to help cells attach to the bottom of the plate. The cells were washed twice and then brought up to 500 μL using Seahorse base medium (Agilent Technologies, supplemented with 1 mM pyruvate, 2 mM glutamine, and 10 mM glucose, pH 7.4).

[1] = tested on: NLRP3 and pro-inflammatory cytokine (IL1β, IL6, IL18, TNFα) mRNA in healthy PBMCs; test: RT-qPCR of NLRP3 and pro-inflammatory cytokine mRNA in healthy PBMCs treated in vitro; type: cell-based, human; details: 4-hour MitoDAMP with 0.5 mM MitoTempo relative to MitoDAMP alone
Experimental: as §2
IL6 ELISA. Isolated PBMCs (4×10^6 cells per sample) from healthy or HF participants were resuspended in RPMI medium containing 10% heat-inactivated FBS and treated with various proinflammatory triggers (Vehicle, MitoDAMP, LPS) and compounds (NR, MCC 950, MitoTempo, or LMT-28) to final PBMC concentrations of 10×10^6 cells per mL. See below for detailed descriptions of the reagents. The samples were incubated in Eppendorf tubes at 37° C. in a 5% CO2 incubator with caps open for times designated in the brief description of drawings. The cultured PBMC samples were centrifuged at 8,000 RPM at room temperature. The supernatant was used for ELISA per the manufacture protocol using R&D Systems human IL6 kit (Cat #DY206-05). The cell pellets were stored in −80° C.
RNA Isolation and Quantitative PCR analysis. Total RNA was isolated from frozen PBMC pellets using Trizol (Invitrogen) per the manufacturer's instructions, and cDNA was synthesized using iScript™ Reverse Transcription Supermix (Bio-rad) per the manufacturer's instructions. Real-time PCR was performed in the Corbett rotor gene 6000 real-time PCR machine using iQ™ SYBR® Green Supermix (Bio-rad) and expression levels of the indicated genes were calculated using the ΔΔCt method.

Complex I = details: healthy PBMC, 4-hour IL6 (1 ng/mL) vs vehicle
Experimental: Complex I in vitro assay. This assay was performed using Abcam Complex I Enzyme Activity Microplate Assay Kit (ab109721), per the manufacturer's protocol. Briefly, following a 4-hour treatment with vehicle or IL6, 5×10^6 PBMCs were washed with PBS and lysed by detergent for 30 minutes on ice, followed by centrifugation at 16,000 g for 20 minutes at 4° C. Supernatant was taken for protein concentration determination. 12.5 μg of total protein in a final volume of 200 μL was incubated in microplates precoated with anti-Complex I antibody for 3 hours at room temperature. Post-washing step, NADH and dye were added, and optical density (OD) was serially measured at 450 nm over 1 hour. The slope of the curve within the linear range was recorded as Complex I activity.

[2] = tested on: monocytes isolated from healthy subjects; test: Maximal respiration of isolated monocytes after 4-hour IL6 treatment; type: cell-based; details: 4-hour 1 ng/mL recombinant human IL6
Experimental: as §1, with “Briefly, antibody-conjugated magnetic bead solution was added to isolated PBMCs resuspended in RPMI containing 0.5% BSA and incubated for 20 minutes at 4° C., followed by magnetic column binding and elution. The procedure was repeated once to improve the purity of monocytes. The monocytes were washed once with RPMI prior to subsequent experiments.” left out
Seahorse Mito Stress Test. Oxygen consumption rate (OCR) of freshly isolated PBMCs was assessed using a Seahorse XFe24 analyzer (Agilent Technologies). […]

`CC(C)(O)c1coc(S(=O)(=O)NC(=O)Nc2c3c(cc4c2CCC4)CCC3)c1` [MCC950] was tested, and the “maximal OCR” value (healthy PBMCs; healthy PBMC, 4-hour MitoDAMP with 1 μM MCC950) was “marginally improved”.

`CC1(C)CC(NC(=O)C[P+](c2ccccc2)(c2ccccc2)c2ccccc2)CC(C)(C)N1[O]` [MitoTempo] was tested, and the cytokine gene expressions [1] was “markedly attenuated” and the “maximal OCR” value (healthy PBMCs; healthy PBMC, 4-hour MitoDAMP with 0.5 mM MitoTempo vs MitoDAMP alone) was “did not change”.

With “IL18: human recombinant IL18, purchased from R&D Systems” the “PBMC maximal OCR” value (healthy PBMCs; healthy PBMCs) was “did not result in a significant decrease”.

With “recombinant IL1β: human recombinant IL1β, purchased from R&D Systems” the “PBMC maximal OCR” value (healthy PBMCs; healthy PBMCs) was “did not result in a significant decrease”.

With “recombinant IL6: human recombinant IL6, purchased from Gibco” the “Complex I enzymatic activity” value (Complex I) was “reduced”, the “OCR through Complex IV (TMPD and ascorbate as electron donors)” value (healthy PBMCs; healthy PBMC, 4-hour IL6 (1 ng/mL) vs vehicle) was “no difference” and the “maximal OCR” value (healthy PBMCs; healthy PBMCs, 4-hour increasing concentrations of human recombinant IL6) was “dose-dependent decline”. The “lowest IL6 concentration with significant reduction of maximal OCR” value (healthy PBMCs; healthy PBMCs, 4-hour treatment) was 0.1 ng/mL and the “maximal OCR of monocytes” value [2] was “decreased”.
